Values after ≈ are worked out from the molar mass of the structure shown.

The subject of data set [1] is human gingival fibroblasts (HGF). Briefly: MTT cytotoxicity test in human gingival fibroblasts. It counts as cell-based. To be noted: CBD 0.25 and 0.5 μmol/l; 24 h incubation. The protocol:
In an in vitro study of the effect of cannabidiol (CBD), human gingival fibroblasts (HGF) isolated from gingiva taken from volunteers at the Department of Oral, Maxillofacial and Facial Surgery of the University Hospital and Medical Faculty of Palacký University Olomouc approved by the Ethics Committee of the University Hospital and Medical Faculty of Palacký University Olomouc (2019) were used. In the first phase of the experiment, a safe CBD concentration was determined based on the results of MTT, which is cytotoxicity test based on the reduction of 3-(4,5-dimethylthiazol-2-yl)-2,5-diphenyltetrazolium bromide (MTT) to the corresponding formazane. The test was performed according to M. D. Maines, L. G. Costa, D. J. Reed, et al. Current protocols in toxicology. New York: John Wiley & Sons. (1998).
Cells seeded in a 96-well plate at a count of 3×10^4 cells/ml and 100 μl/well, which were […], 100 μl MTT was added (0.5 mg/ml in serum-free culture medium), the mixture was incubated for 2 h. After the incubation period and aspiration of the MTT mixture, 100 μl DMSO (dimethyl sulfoxide) with NH3 (1%, v/v) was added. Absorbance was measured at 540 nm.
In general terms: Tetrazolium dyes change colour on reduction, which living cells bring about.

The subject of the next data set is IL-6. Briefly: IL-6 production (ELISA) in HGF after P. gingivalis LPS inflammation induction. It counts as cell-based, human. The following applies: CBD 0.25 and 0.5 μmol/l, 6 and 24 h. Here is the method:
(§1) According to the values obtained from the MTT test, two subtoxic concentrations of CBD (0.25 and 0.5 μmol/l) were selected and used to determine its anti-inflammatory effect. Inflammation to HGF was induced by P. gingivalis lipopolysaccharide (LPS) according to How K. Y., Song K. P., Chan K. G., Porphyromonas gingivalis: An Overview of Periodontopathic Pathogen below the Gum Line. Front Microbiol 2016; 7:53. HGFs were seeded in 6-well plates and allowed to grow to confluence. The cells were washed with 1 ml of PBS, and then LPS (1 μg/ml, 2 ml/well) in serum-free culture medium was added, and incubated for 24 hours. A portion of the cells was left without the application of LPS (i.e., without induced inflammation). At the end of the incubation period, CBD in serum-free culture medium at concentrations of 0.25 and 0.5 μmol/l was added (2 ml/well) for 6 and 24 hours, both for cells cultured with LPS and for cells without LPS application. At selected time intervals, the culture medium was collected and stored at −80° C. for further analysis. The levels of proinflammatory interleukins IL-6, IL-8 (Human ELISA Development Kit, Cat. No. 900-K16 and 900-K18, PeproTech, Baria, Czech Republic) and matrix metalloproteinase (MMP-2) (Duo Set ELISA Development System, Cat. No. DY902, R&D, Bio-Techne, UK) were determined by ELISA. […]
For orientation: ELISA stands for enzyme-linked immunosorbent assay.

A further data set has as its system IL-8. Briefly: IL-8 production (ELISA) in HGF after P. gingivalis LPS inflammation induction. It counts as cell-based, human. To be noted: CBD 0.25 and 0.5 μmol/l, 6 and 24 h. Here is the method:
as §1

Data set [2] relates to matrix metalloproteinase (MMP-2). Description: MMP-2 production (ELISA) in HGF after P. gingivalis LPS inflammation induction. It counts as cell-based, human. To be noted: CBD 0.25 and 0.5 μmol/l, 6 and 24 h. Here is the method: as §1
The subject of data set [3] is Porphyromonas gingivalis CCM 3985. Briefly: MIC by microdilution method (CLSI M11), anaerobic. It counts as cell-based. The following applies: P. gingivalis, 60 h anaerobic incubation, three independent experiments. Here is the method:
(§2) Strains Streptococcus mutans CCM 7409 and Porphyromonas gingivalis CCM 3985 were selected for testing. Both were obtained from Czech Collection of Microorganisms (Brno). BHI+kh medium (Brain-heart infusion (Oxoid, UK) enriched with vitamin K (0.001 mg/ml) and hemin ([…])) was used to cultivate S. mutans, and for P. gingivalis medium WCHA—Wilkins-Chalgren agar (HiMedia, India), with 7% sheep erythrocytes and vitamin K (0.001 mg/ml). (Blaskovich M A T, Kavanagh A M, Elliott A G, Zhang B, Ramu S, Amado M et al. The antimicrobial potential of cannabidiol. Commun Biol 2021; 4(1):1-18).
(§3) The susceptibility of selected microbes to tested substance was verified by the microdilution method according to Clinical and Laboratory Standards Institute (M Methods for Antimicrobial Susceptibility Testing of Anaerobic Bacteria. 9th ed. CLSI standard M11. Wayne, PA: Clinical and Laboratory Standards Institute; 2018).
(§4) Basic working solutions were prepared from the tested substance by dilution in DMSO. […] The required concentrations of the tested substance were then prepared by serial dilution, dilution factor 1:2. 135 μl of each dilution was pipetted into the wells of a 96-well round-bottomed hardened polystyrene microtiter plate (Gamma České Budějovice, a.s.).
(§5) From fresh cultures of the test strains on Wilkins-Chalgren agar (WCHA; HiMedia, India), with 7% sheep erythrocytes and vitamin K, suspensions were prepared in BHI+kh at an optical density corresponding to 0.5 degrees McFarland turbidity scale (after subtraction of optical density of the medium). The suspensions were then diluted in the ratio 1:15 (final inoculum concentration 5×10^6 CFU/ml). Individual wells with 135 μl of the CBD solutions and control wells were inoculated with 15 μl of the prepared inoculum.
(§6) The inoculated microtiter plates were incubated in an Anaerobic Work Station (Ruskinn Technology, UK) with an anaerobic atmosphere (80% N2, 10% CO2 and 10% H2) at 37° C. The incubation was performed for 60 hours for P. gingivalis and 24 hours for S. mutans.
(§7) The sterility of the medium was checked by transferring 150 μl BHI+kh to three wells of a microtiter plate. […]
(§8) After evaluating the MIC, the contents of the wells with the highest concentration of CBD and with visible microbial growth were inoculated onto WCHA. […] After 48 hours (S. mutans) or 14 days (P. gingivalis) of incubation in an anaerobic atmosphere, the purity of the grown microbial culture was evaluated. […]
(§9) The growth of the microbe, which manifested itself by turbidity of the medium or as a sediment at the bottom of the well of the microtiter plate, was monitored in the individual wells of the microtiter plate. […] The minimum inhibitory concentration (MIC) was determined as the lowest concentration of the substance at which no microbial growth was observed. […]

Data set [4] deals with Streptococcus mutans CCM 7409. Description: MIC by microdilution method (CLSI M11), anaerobic. It counts as cell-based. To be noted: S. mutans, 24 h anaerobic incubation, three independent experiments. Here is the method: as §2, §3, §4, §5, §6, §7, §8, §9
The subject of the next data set is gingival fibroblasts. Briefly: Permeation of CBD into gingival fibroblasts (UHPLC/MS). It counts as in vitro ADME, human. To be noted: 0.5 μM CBD. Here is the method:
Gingival fibroblasts (obtained from three healthy patients) were seeded in a 6-well plate (well area 9.6 cm^2) and allowed to grow until the next day (confluence). CBD was applied to the cells at a concentration of 0.5 μM for 6 and 24 hours. At the end of the incubation period, 250 μl of medium was mixed with 250 μl of methanol with 1% (w/w) HCl and the cells were washed 2× with PBS (1 ml), scraped from 4 wells into PBS (phosphate buffer, 1 ml), centrifuged for 5 minutes at 3000 rpm. After centrifugation, PBS was removed and 0.5 ml of methanol with 1% (w/w) HCl was added and the cells were sonicated (cycle 0.5, amplitude 50, 10 times). The samples were then centrifuged for 2 minutes at 8000 rpm and the supernatant was pipetted into a clean tube and subjected to UHPLC/MS analysis.
UHPLC/MS analyses were performed on an ACQUITY I Class liquid chromatograph (Waters, Milford, MA, USA). It is a modular system consisting of a chromatographic pump (Binary Solvent Manager), autosampler (Sample Manager) and column thermostat (Column Manager). Kinetex Polar C18 (100×2.1 mm i.d., 2.6 μm; Phenomenex, CA, USA) was used as the analytical column. The system was operated with a gradient elution of the mobile phase (MFA 0.1% formic acid in water, MFB 0.1% formic acid in acetonitrile) at a flow rate of 0.6 ml/min and a temperature of 25° C. The gradient elution had the following parameters: 0 to 11 min 50 to 70% MFB, 11 to 12.5 min 70 to 100% MFB, 12.5 to 13 min 100 to 50% MFB, 13 to 16 min 50% MFB. The injection volume was 2 μl.
A high resolution Synapt G2-S mass spectrometer (Waters Corp., Manchester, UK) connected to the UPLC system via an electrospray ionization (ESI) interface was used for the metabolic study. The ion source was operated in positive ionization mode with a capillary voltage of 3.0 kV and a sample cone of 30 V. The source temperature and desolvation gas temperature were set at 120° C. and 320° C. The desolvation gas flow rate was 900 l/h. […]

The term MIC denotes the lowest concentration found to suppress growth. On to `C=C(C)[C@@H]1CCC(C)=C[C@H]1c1c(O)cc(CCCCC)cc1O` [CBD, cannabidiol], for which, in data set [1], the “Cytotoxicity by MTT test” value is “subtoxic”. In the data set on IL-6, the “levels of IL-6” value is given as “decrease”. Besides, the “levels of IL-8” value in the data set with IL-8 is listed as “decrease”. Further, in data set [2], the MMP-2 levels entry was “no significant changes”. For the same molecule, the MIC range in data set [3] is 1 to 2 µg/mL; in data set [4] it was 16 µg/mL (≈ 50.9 µM). In addition, the minimal inhibitory concentration (MIC) in data set [3] (Porphyromonas gingivalis, CCM3985, read-out: MIC median) amounted to 1.5 µg/mL (≈ 4.77 µM); in data set [4] (Streptococcus mutans, CCM7409, read-out: MIC median), 16 µg/mL (≈ 50.9 µM). Moreover, the “absorption of CBD by gingival fibroblasts” value in the data set on gingival fibroblasts (6 and 24 h, cell lysates) is on record as “absorbed relatively quickly”. For the same molecule, the “CBD in the culture medium” value in the data set with gingival fibroblasts (6 and 24 h incubation, UHPLC/MS) is recorded as “not detected”. The “metabolites of CBD” value in the data set with gingival fibroblasts (after 24 h of cultivation) is given as “no metabolites of CBD were identified”.

(Values after patent US20250082653A1, “THERAPEUTIC PRODUCT IN THE FORM OF A DENTAL GEL” (CB21 PHARMA, S.R.O., priority 2021, published 2025).)
